BindingDB's records for doi:10.1016/s0960-894x(98)00149-8 (University of Bristol, 1999)

What was measured:
[1] = molecular target: N-succinyl-diaminopimelate aminotransferase (Escherichia coli); assay: Compound was tested for binding affinity against N-Succinyl Diaminopimelic Acid Aminotransferase from Escherichia coli
[2] = molecular target: N-succinyl-diaminopimelate aminotransferase (Escherichia coli); assay: as above; remark: listed apart in the source
[3] = molecular target: N-succinyl-diaminopimelate aminotransferase (Escherichia coli); assay: Compound was tested for 50% inhibition of N-Succinyl Diaminopimelic Acid Aminotransferase (DAP-AT) from Escherichia coli.

IC50 [1] | Ki [2] | IC50 [3] | SMILES
> 50000 µM |  |  | CC(=O)N[C@@H](Cc1ccccc1)C(=O)N[C@@H](CCCC(=O)C(=O)O)C(=O)O [dilithium 2-[1-methylcarboxamido-2-phenyl-(1S)-ethylcarboxamido]-6-oxo-(2S)-heptanedioate]
0.5 µM | 0.022 µM |  | NNC(CCC[C@H](NC(=O)CCC(=O)O)C(=O)O)C(=O)O (stereo partly drawn) [(S)-2-(3-Carboxy-propionylamino)-6-hydrazino-heptanedioic acid]
 | 0.169 µM | 0.8 µM | CC(=O)N[C@@H](CC(=O)O)C(=O)N[C@@H](CCCC(NN)C(=O)O)C(=O)O (stereo partly drawn) [(S)-2-((S)-2-Acetylamino-3-carboxy-propionylamino)-6-hydrazino-heptanedioic acid]
